# Results as given in ChEMBL document CHEMBL1201862, “PubChem BioAssay data set” (2004).
#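 How tested: cells in 96-well plates exposed to compound for 48 hours at five concentrations. Abbreviation: GI50, concentration required for 50% inhibition of growth.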 Activity calls are given as the source filed them. No stated cut-off is given here; in the data, active = GI50 up to about 1.1 µM and inactive = higher.
# What was measured:
# Assay in all cases: growth of human tumour cells (NCI), 48 h
# SF-295 = system: SF-295
# NCI-H522 = system: NCI-H522
# LOX IMVI = system: LOX IMVI
# SW-620 = system: SW-620
# SNB-75 = system: SNB-75
# NCI-H460 = system: NCI-H460
# K562 = system: K562
# A549 = system: A549
# UACC-257 = system: UACC-257
# COLO 205 = system: COLO 205
# UACC-62 = system: UACC-62
# SK-MEL-2 = system: SK-MEL-2
# HL-60 = system: HL-60
# SNB-19 = system: SNB-19
# OVCAR-4 = system: OVCAR-4
# CAKI-1 = system: CAKI-1
Structure (SMILES),GI50 (SF-295),GI50 (NCI-H522),GI50 (LOX IMVI),GI50 (SW-620),GI50 (SNB-75),GI50 (NCI-H460),GI50 (K562),GI50 (A549),GI50 (UACC-257),GI50 (COLO 205),GI50 (UACC-62),GI50 (SK-MEL-2),GI50 (HL-60),GI50 (SNB-19),GI50 (OVCAR-4),GI50 (CAKI-1)
C/C(CC(=O)Nc1ccc(C)c(C)c1)=N\NC(N)=O,> 100 µM (inactive),82 µM (inactive),> 100 µM (inactive),> 100 µM (inactive),> 100 µM (inactive),> 100 µM (inactive),> 100 µM (inactive),> 100 µM (inactive),> 100 µM (inactive),> 100 µM (inactive),> 100 µM (inactive),> 100 µM (inactive),> 100 µM (inactive),–,–,–
Cc1nc2nnc(C)n2c2c1C(=O)Nc1ccccc1N2,> 100 µM (inactive),> 100 µM (inactive),> 100 µM (inactive),> 100 µM (inactive),> 100 µM (inactive),> 100 µM (inactive),> 100 µM (inactive),> 100 µM (inactive),> 100 µM (inactive),> 100 µM (inactive),> 100 µM (inactive),> 100 µM (inactive),> 100 µM (inactive),> 100 µM (inactive),–,–
CC1=NN(C(=O)c2ccncc2)C(=O)C1/N=N/c1ccc(F)cc1 (centres undefined),> 100 µM (inactive),> 100 µM (inactive),> 100 µM (inactive),> 100 µM (inactive),21.5 µM (inactive),> 100 µM (inactive),> 100 µM (inactive),> 100 µM (inactive),> 100 µM (inactive),> 100 µM (inactive),> 100 µM (inactive),> 100 µM (inactive),> 100 µM (inactive),> 100 µM (inactive),> 100 µM (inactive),> 100 µM (inactive)
Cn1c2cc([N+](=O)[O-])ccc2c(=O)c2c(O)cc3c(c21)C=CC(C)(C)O3,16.9 µM (inactive),46.5 µM (inactive),> 100 µM (inactive),> 100 µM (inactive),10.1 µM (inactive),> 100 µM (inactive),> 100 µM (inactive),57.4 µM (inactive),> 100 µM (inactive),> 100 µM (inactive),25.1 µM (inactive),40.7 µM (inactive),> 100 µM (inactive),31.6 µM (inactive),> 100 µM (inactive),60.5 µM (inactive)
C/C(=N\NC(=N)N)C(CN1CCOCC1)C(c1ccccc1)c1c(O)c2ccccc2oc1=O (centres undefined),> 100 µM (inactive),> 100 µM (inactive),> 100 µM (inactive),> 100 µM (inactive),24.9 µM (inactive),> 100 µM (inactive),> 100 µM (inactive),> 100 µM (inactive),> 100 µM (inactive),49.4 µM (inactive),81.3 µM (inactive),> 100 µM (inactive),49.1 µM (inactive),> 100 µM (inactive),61.9 µM (inactive),> 100 µM (inactive)
NCCNc1cccc2ccccc12,> 100 µM (inactive),> 100 µM (inactive),> 100 µM (inactive),> 100 µM (inactive),–,> 100 µM (inactive),–,> 100 µM (inactive),> 100 µM (inactive),> 100 µM (inactive),> 100 µM (inactive),> 100 µM (inactive),> 100 µM (inactive),> 100 µM (inactive),> 100 µM (inactive),> 100 µM (inactive)
Cc1cc2c(c(C(N)=O)c1C)-c1cc(Cl)cc(Cl)c1C2=O,73.8 µM (inactive),> 100 µM (inactive),93.3 µM (inactive),–,22.6 µM (inactive),> 100 µM (inactive),> 100 µM (inactive),–,> 100 µM (inactive),> 100 µM (inactive),> 100 µM (inactive),> 100 µM (inactive),> 100 µM (inactive),79.4 µM (inactive),> 100 µM (inactive),–
CNS(=O)(=O)NNS(=O)(=O)c1cccc([N+](=O)[O-])c1,> 100 µM (inactive),> 100 µM (inactive),> 100 µM (inactive),> 100 µM (inactive),> 100 µM (inactive),> 100 µM (inactive),> 100 µM (inactive),> 100 µM (inactive),> 100 µM (inactive),> 100 µM (inactive),> 100 µM (inactive),> 100 µM (inactive),–,> 100 µM (inactive),> 100 µM (inactive),> 100 µM (inactive)
Cc1nc(O)nc(CC(O)(c2ccccc2)c2ccccc2)c1-c1ccccc1,> 100 µM (inactive),58.5 µM (inactive),> 100 µM (inactive),> 100 µM (inactive),52.6 µM (inactive),> 100 µM (inactive),> 100 µM (inactive),> 100 µM (inactive),> 100 µM (inactive),> 100 µM (inactive),> 100 µM (inactive),> 100 µM (inactive),> 100 µM (inactive),> 100 µM (inactive),> 100 µM (inactive),> 100 µM (inactive)
COc1ccc(/C=N/NC(=O)NCCNCCO)cc1,> 100 µM (inactive),> 100 µM (inactive),> 100 µM (inactive),> 100 µM (inactive),> 100 µM (inactive),> 100 µM (inactive),> 100 µM (inactive),> 100 µM (inactive),> 100 µM (inactive),> 100 µM (inactive),> 100 µM (inactive),> 100 µM (inactive),> 100 µM (inactive),–,> 100 µM (inactive),> 100 µM (inactive)
CCOC(=O)C1=C(C)N(NC(=O)Nc2ccccc2)C2(N)N(NC(=O)Nc3ccccc3)C(C)=C(C(=O)OCC)C12C#N (centres undefined),–,18.9 µM (inactive),18.9 µM (inactive),18.9 µM (inactive),18.9 µM (inactive),17.8 µM (inactive),20 µM (inactive),26.5 µM (inactive),23.7 µM (inactive),17.7 µM (inactive),17.5 µM (inactive),16.1 µM (inactive),–,–,17.4 µM (inactive),19.2 µM (inactive)
CCCC/C=C1\CCC(CN2CCCC2)C1=O (centres undefined),18.1 µM (inactive),–,8.09 µM (inactive),2.07 µM (inactive),18.4 µM (inactive),19.9 µM (inactive),2.71 µM (inactive),18.5 µM (inactive),18.1 µM (inactive),12.9 µM (inactive),17.1 µM (inactive),16 µM (inactive),8.61 µM (inactive),21.8 µM (inactive),–,> 10 µM (inactive)
COC(=O)c1ccc(C(=O)OC)c2nc3cc(Cl)ccc3nc12,> 100 µM (inactive),> 100 µM (inactive),> 100 µM (inactive),> 100 µM (inactive),> 100 µM (inactive),> 100 µM (inactive),> 100 µM (inactive),> 100 µM (inactive),> 100 µM (inactive),> 100 µM (inactive),> 100 µM (inactive),> 100 µM (inactive),> 100 µM (inactive),> 100 µM (inactive),> 100 µM (inactive),> 100 µM (inactive)
[N-]=[N+]=NC12CC3C4CC5CC3C(C1)C(C5)C4C2,> 100 µM (inactive),> 100 µM (inactive),> 100 µM (inactive),> 100 µM (inactive),> 100 µM (inactive),> 100 µM (inactive),> 100 µM (inactive),> 100 µM (inactive),> 100 µM (inactive),> 100 µM (inactive),> 100 µM (inactive),> 100 µM (inactive),–,> 100 µM (inactive),> 100 µM (inactive),> 100 µM (inactive)
CN(C)c1ccc(/C=C2\C=Cc3ccccc32)cc1,34.3 µM (inactive),17.3 µM (inactive),47.2 µM (inactive),38.1 µM (inactive),11.3 µM (inactive),39.4 µM (inactive),28.8 µM (inactive),76.6 µM (inactive),–,58.6 µM (inactive),42.3 µM (inactive),90.6 µM (inactive),27.9 µM (inactive),59.2 µM (inactive),50.5 µM (inactive),78 µM (inactive)
Cc1ccc(/C=C/C(=O)c2sc(-c3cccnc3)nc2C)cc1,> 100 µM (inactive),> 100 µM (inactive),> 100 µM (inactive),> 100 µM (inactive),–,> 100 µM (inactive),> 100 µM (inactive),> 100 µM (inactive),> 100 µM (inactive),> 100 µM (inactive),> 100 µM (inactive),> 100 µM (inactive),> 100 µM (inactive),–,–,> 100 µM (inactive)
N#CC1=C(N)Oc2c(ccc3cccnc23)C1c1ccccc1 (centres undefined),0.515 µM (active),–,1.34 µM (inactive),0.51 µM (active),0.731 µM (active),0.738 µM (active),0.396 µM (active),0.738 µM (active),3.61 µM (inactive),1.24 µM (inactive),0.697 µM (active),0.296 µM (active),0.267 µM (active),5.3 µM (inactive),17.2 µM (inactive),0.619 µM (active)
Cc1nc2c(n1CC(C)(C)C)C(=O)c1ccccc1C2=O,> 100 µM (inactive),92.7 µM (inactive),55.6 µM (inactive),> 100 µM (inactive),> 100 µM (inactive),58.6 µM (inactive),56 µM (inactive),> 100 µM (inactive),80.7 µM (inactive),> 100 µM (inactive),89.5 µM (inactive),> 100 µM (inactive),36.1 µM (inactive),> 100 µM (inactive),> 100 µM (inactive),–
CCOC(=O)[C@H]1Nc2ccc(OC)cc2C2c3ccccc3CC21 (some centres undefined),> 100 µM (inactive),> 100 µM (inactive),> 100 µM (inactive),> 100 µM (inactive),83.9 µM (inactive),> 100 µM (inactive),> 100 µM (inactive),> 100 µM (inactive),> 100 µM (inactive),> 100 µM (inactive),> 100 µM (inactive),> 100 µM (inactive),–,> 100 µM (inactive),> 100 µM (inactive),> 100 µM (inactive)
